In patent US9226927B2, “Gamma secretase inhibitors” (MERCK SHARP & DOHME CORP., priority 2011, dated 2016) one finds IC50 data, which are given here for 15 compounds.

The target in the test is γ-secretase (Homo sapiens (Human), UniProt P49768). Put plainly: γ-secretase membrane assay with Aβ40 ECL immunoassay. Format: biochemical. The following applies: membranes of 293 cells expressing C99 (SPC99-lon), 37° C. for 1 h, Aβ 40 by ECL immunoassay. How it is done:
Gamma-secretase activity was determined as described by Zhang et al. (Biochemistry, 40 (16), 5049-5055, 2001), which is herein incorporated by reference. Activity is expressed either as a percent inhibition or as the concentration of compound producing 50% inhibition of enzyme activity.
The construct SPC99-Ion, which contains the first 18 residues and the C-terminal 99 amino acids of APP carrying the London mutation, has been described (Zhang, L., Song, L., and Parker, E. (1999) J. Biol. Chem. 274, 8966-8972). Upon insertion into the membrane, the 17 amino acid signal peptide is processed, leaving an additional leucine at the N-terminus of Aβ. SPC99-lon was cloned into the pcDNA4/TO vector (Invitrogen) and transfected into 293 cells stably transfected with pcDNA6/TR, which is provided in the T-REx system (Invitrogen). The transfected cells were selected in Dulbecco's modified Eagle's media (DMEM) supplemented with 10% fetal bovine serum, 100 units/mL penicillin, 100 µg/mL streptomycin, 250 µg/mL zeocin, and 5 µg/mL blasticidin (Invitrogen). Colonies were screened for Aβ production by inducing C99 expression with […] tetracycline for 16-20 h and analyzing conditioned media with a sandwich immunoassay (see below). One of the clones, designated as pTRE.15, was used in these studies.
C99 expression in cells was induced with […] tetracycline for 20 h. The cells were pretreated with […] 12-myristate 13-acetate (PMA) and […] brefeldin A (BFA) for 5-6 h at 37 C before harvesting. The cells were washed 3 times with cold phosphate-buffered saline (PBS) and harvested in buffer A containing 20 mM Hepes (pH 7.5), 250 mM sucrose, 50 mM KCl, 2 mM EDTA, 2 mM EGTA, and Complete protease inhibitor tablets (Roche Molecular Biochemicals). The cell pellets were flash-frozen in liquid nitrogen and stored at −70° C. before use.
To make membranes, the cells were resuspended in buffer A and lysed in a nitrogen bomb at 600 psi. The cell lysate was centrifuged at 1500 g for 10 min to remove nuclei and large cell debris. The supernatant was centrifuged at 100000 g for 1 h. The membrane pellet was resuspended in buffer A plus 0.5 M NaCl, and the membranes were collected by centrifugation at 200000 g for 1 h. The salt-washed membrane pellet was washed again in buffer A and centrifuged at 100000 g for 1 h. The final membrane pellet was resuspended in a small volume of buffer A using a Teflon-glass homogenizer. The protein concentration was determined, and membrane aliquots were flash-frozen in liquid nitrogen and stored at −70° C.
To measure γ-secretase activity, membranes were incubated at 37° C. for 1 h in 50 μL of buffer containing 20 mM Hepes (pH 7.0) and 2 mM EDTA. At the end of the incubation, Aβ 40 and Aβ 42 were measured using an electrochemiluminescence (ECL)-based immunoassay. Aβ 40 was identified with antibody pairs TAG-G2-10 and biotin-W02, while Aβ 42 was identified with TAG-G2-11 and biotin-4G8. The ECL signal was measured using an ECL-M8 instrument (IGEN International, Inc.) according to the manufacturer's instructions. The data presented were the means of the duplicate or triplicate measurements in each experiment. The characteristics of γ-secretase activity described were confirmed using more than five independent membrane preparations.
As a reminder, the IC50 is the concentration that gives 50% inhibition. A high value points to weaker potency in that assay. In turn, `O=S(=O)(CC[C@@H]1OCC[C@@]2(S(=O)(=O)c3ccc(Cl)cc3)c3c(F)ccc(F)c3OC[C@@H]12)Cc1ccccn1` [Compound 8a] gave an IC50 of 1.9 nM.
As to `O=S(=O)(CC[C@@H]1OCC[C@@]2(S(=O)(=O)c3ccc(Cl)cc3)c3c(F)ccc(F)c3OC[C@@H]12)c1cncnc1` [Compound 25g], the IC50 was 12.9 nM.
Consider `O=c1[nH]cccc1S(=O)(=O)CC[C@@H]1OCC[C@@]2(S(=O)(=O)c3ccc(Cl)cc3)c3c(F)ccc(F)c3OC[C@@H]12` [Compound 27a], for which the IC50 stood at 2.8 nM.
Then `COc1ccc(S(=O)(=O)CC[C@@H]2OCC[C@@]3(S(=O)(=O)c4ccc(Cl)cc4)c4c(F)ccc(F)c4OC[C@@H]23)cn1` [Compound 25h], with 16.5 nM; and `O=S(=O)(CC[C@@H]1OCC[C@@]2(S(=O)(=O)c3ccc(Cl)cc3)c3c(F)ccc(F)c3OC[C@@H]12)CCn1cccn1` [Compound 4], with 1.4 nM; and `Nc1ncccc1S(=O)(=O)CC[C@@H]1OCC[C@@]2(S(=O)(=O)c3ccc(Cl)cc3)c3c(F)ccc(F)c3OC[C@@H]12` [Compound 27b], with 18 nM.
Then `O=S(=O)(CC[C@@H]1OCC[C@@]2(S(=O)(=O)c3ccc(Cl)cc3)c3c(F)ccc(F)c3OC[C@@H]12)c1ccncn1` [Compound 25f], with 2.9 nM.
Then `Cc1nc(CS(=O)(=O)CC[C@@H]2OCC[C@@]3(S(=O)(=O)c4ccc(Cl)cc4)c4c(F)ccc(F)c4OC[C@@H]23)no1` [Compound 14], with 5.8 nM; and `O=S(=O)(CC[C@@H]1OCC[C@@]2(S(=O)(=O)c3ccc(Cl)cc3)c3c(F)ccc(F)c3OC[C@@H]12)c1ncccn1` [Compound 25e], with 6.4 nM.
Compound `O=c1ccc(S(=O)(=O)CC[C@@H]2OCC[C@@]3(S(=O)(=O)c4ccc(Cl)cc4)c4c(F)ccc(F)c4OC[C@@H]23)c[nH]1` [Compound 25a] came in with an IC50 of 18.7 nM.
For `O=S(=O)(CC[C@@H]1OCC[C@@]2(S(=O)(=O)c3ccc(Cl)cc3)c3c(F)ccc(F)c3OC[C@@H]12)Cc1ncon1` [Compound 11] the value was 1.7 nM; for `O=S(=O)(CC[C@@H]1OCC[C@@]2(S(=O)(=O)c3ccc(Cl)cc3)c3c(F)ccc(F)c3OC[C@@H]12)c1ccnnc1` [Compound 25d], 10.2 nM.
As for `O=S(=O)(CC[C@@H]1OCC[C@@]2(S(=O)(=O)c3ccc(Cl)cc3)c3c(F)ccc(F)c3OC[C@@H]12)c1cnccn1` [Compound 25c], the IC50 stood at 5.5 nM.
For the compound `O=S(=O)(CC[C@@H]1OCC[C@@]2(S(=O)(=O)c3ccc(Cl)cc3)c3c(F)ccc(F)c3OC[C@@H]12)c1cccnn1` [Compound 25b], half-maximal inhibition (IC50) required 4.5 nM.
Then `O=S(=O)(CC[C@@H]1OCC[C@@]2(S(=O)(=O)c3ccc(Cl)cc3)c3c(F)ccc(F)c3OC[C@@H]12)Cc1cccnc1` [Compound 8b], with 6.6 nM.
